Values of other authors, collected in US20260345593A1, “ORAL FORMULATION OF N-PYRIDINYL ACETAMIDE DERIVATIVE FOR TREATING INTERSTITIAL LUNG DISEASE” (AstraZeneca AB, priority 2022, published 2026).

Assays:
[1] = system: Axin2 expression levels in skin samples from subjects with advanced cancers; conditions: 10 mg once daily, cited from earlier work
[2] = 20 mg BID, preclinical and clinical studies; cited from earlier work
[3] = system: pH elevation; conditions: 20 mg BID oral pre-treatment; cited from earlier work
[4] = system: patients with IPF; conditions: cited from earlier work; for rate of decline in lung function: patients with IPF (King 2014 and Richeldi 2014); for GI side effects / tolerability in IPF patients: patients with IPF
[5] = system: patients with ILD-PF other than IPF; conditions: ILD-PF other than IPF (Wells 2020); cited from earlier work
[6] = system: ILD patients with SSc-ILD; conditions: SSc-ILD (Khanna 2020); cited from earlier work

Compound	rate of decline in lung function [4]	GI side effects [4]	tolerability in IPF patients [4]	also measured
Cc1cc(-c2ncc(CC(=O)Nc3ccc(-c4cnccn4)cn3)cc2C)ccn1 [Wnt974]	–	–	–	reduction in Axin2 expression levels in skin samples ([1]; subjects with advanced cancers (Rodon 2021)): approximately 90%; average Ctrough at steady state ([1]; subjects with advanced cancers): 3.7 ×IC50
COCCCOc1ccnc(C[S+]([O-])c2nc3ccccc3[nH]2)c1C (racemic) [rabeprazole, (RS)-2-([4-(3-methoxypropoxy)-3-methylpyridin-2-yl]methylsulfinyl)-1H-benzo[d]imidazole]	–	–	–	safety concerns [2]: not raised any notable safety concerns; time to PD steady state of pH elevation [3]: 3 days
Cc1ccc(=O)n(-c2ccccc2)c1 [pirfenidone]	slow the rate of decline in lung function	troublesome GI side effects	many patients with IPF are not able to tolerate these medications	–
COC(=O)c1ccc2c(c1)NC(=O)/C2=C(\Nc1ccc(N(C)C(=O)CN2CCN(C)CC2)cc1)c1ccccc1 [nintedanib, methyl (3Z)-3-{[(4-{methyl[(4-methylpiperazin-1-yl)acetyl]amino}phenyl)amino](phenyl)methylidene}-2-oxo-2,3-dihydro-1H-indole-6-carboxylate]	slow the rate of decline in lung function	troublesome GI side effects	many patients with IPF are not able to tolerate these medications	rate of decline in lung function [5]: slow the rate of decline in lung function in these patients
Tocilizumab: a monoclonal antibody directed against the IL-6 receptor	–	–	–	progression of lung disease [6]: slow progression of lung disease
